# Results from patent publication US9592221B2, “Antibacterial agents: aryl myxopyronin derivatives” (priority 2012, dated 2017).
# pIC50: −log10 of the molar value.
# Key:
# [1] = biological target: E. coli RNA polymerase σ^70 holoenzyme (Escherichia coli, UniProt P0A8T7+P0A8V2); assay: Fluorescence-detected RNA polymerase assay, E. coli RNA polymerase; type: biochemical; conditions: read-out: IC50 E. coli RNAP
# [2] = system: Staphylococcus aureus ATCC 12600; assay: MIC, spiral gradient endpoint assay, S. aureus ATCC 12600; type: cell-based; conditions: ATCC12600; Staphylococcus aureus ATCC 12600
# [3] = system: Acinetobacter baumannii ATCC 19606; assay: MIC, spiral gradient endpoint assay, A. baumannii; type: cell-based; conditions: ATCC19606; Acinetobacter baumannii ATCC 19606
# [4] = system: Escherichia coli D21f2tolC; assay: MIC, spiral gradient endpoint assay, E. coli D21f2tolC; type: cell-based; conditions: Escherichia coli, D21F2TOLC, read-out: MIC E. coli D21f2toIC
# [5] = system: Mycobacterium tuberculosis H37Rv; assay: MIC, microplate Alamar Blue assay, M. tuberculosis; type: cell-based
# [6] = system: Bacillus anthracis Vollum 1b; assay: microbe, parasite or virus in culture; type: cell-based; conditions: Bacillus anthracis, VOLLUM1B, read-out: MIC B. anthracis Vollum-1b
# [7] = system: Francisella tularensis SCHU4; assay: microbe, parasite or virus in culture; type: cell-based; conditions: Francisella tularensis, SCHU4, read-out: MIC F. tularensis SCHU4
# Yersinia pestis C092 = assay: microbe, parasite or virus in culture; type: cell-based; conditions: Yersinia pestis, C092, read-out: MIC Y. pestis C092
# Burkholderia mallei CHN7 = assay: microbe, parasite or virus in culture; type: cell-based; conditions: Burkholderia mallei, CHN7, read-out: MIC B. mallei CHN7
# [8] = system: Burkholderia pseudomallei Human/Blood/OH/US/1994; assay: microbe, parasite or virus in culture; type: cell-based; conditions: Burkholderia pseudomallei, read-out: MIC B. pseudomallei Human/Blood/OH
# Brucella melitensis 16M = assay: microbe, parasite or virus in culture; type: cell-based; conditions: Brucella melitensis, 16M, read-out: MIC B. melitensis 16M
# Sequence of E. coli RNA polymerase σ^70 holoenzyme (P0A8T7 whole entry): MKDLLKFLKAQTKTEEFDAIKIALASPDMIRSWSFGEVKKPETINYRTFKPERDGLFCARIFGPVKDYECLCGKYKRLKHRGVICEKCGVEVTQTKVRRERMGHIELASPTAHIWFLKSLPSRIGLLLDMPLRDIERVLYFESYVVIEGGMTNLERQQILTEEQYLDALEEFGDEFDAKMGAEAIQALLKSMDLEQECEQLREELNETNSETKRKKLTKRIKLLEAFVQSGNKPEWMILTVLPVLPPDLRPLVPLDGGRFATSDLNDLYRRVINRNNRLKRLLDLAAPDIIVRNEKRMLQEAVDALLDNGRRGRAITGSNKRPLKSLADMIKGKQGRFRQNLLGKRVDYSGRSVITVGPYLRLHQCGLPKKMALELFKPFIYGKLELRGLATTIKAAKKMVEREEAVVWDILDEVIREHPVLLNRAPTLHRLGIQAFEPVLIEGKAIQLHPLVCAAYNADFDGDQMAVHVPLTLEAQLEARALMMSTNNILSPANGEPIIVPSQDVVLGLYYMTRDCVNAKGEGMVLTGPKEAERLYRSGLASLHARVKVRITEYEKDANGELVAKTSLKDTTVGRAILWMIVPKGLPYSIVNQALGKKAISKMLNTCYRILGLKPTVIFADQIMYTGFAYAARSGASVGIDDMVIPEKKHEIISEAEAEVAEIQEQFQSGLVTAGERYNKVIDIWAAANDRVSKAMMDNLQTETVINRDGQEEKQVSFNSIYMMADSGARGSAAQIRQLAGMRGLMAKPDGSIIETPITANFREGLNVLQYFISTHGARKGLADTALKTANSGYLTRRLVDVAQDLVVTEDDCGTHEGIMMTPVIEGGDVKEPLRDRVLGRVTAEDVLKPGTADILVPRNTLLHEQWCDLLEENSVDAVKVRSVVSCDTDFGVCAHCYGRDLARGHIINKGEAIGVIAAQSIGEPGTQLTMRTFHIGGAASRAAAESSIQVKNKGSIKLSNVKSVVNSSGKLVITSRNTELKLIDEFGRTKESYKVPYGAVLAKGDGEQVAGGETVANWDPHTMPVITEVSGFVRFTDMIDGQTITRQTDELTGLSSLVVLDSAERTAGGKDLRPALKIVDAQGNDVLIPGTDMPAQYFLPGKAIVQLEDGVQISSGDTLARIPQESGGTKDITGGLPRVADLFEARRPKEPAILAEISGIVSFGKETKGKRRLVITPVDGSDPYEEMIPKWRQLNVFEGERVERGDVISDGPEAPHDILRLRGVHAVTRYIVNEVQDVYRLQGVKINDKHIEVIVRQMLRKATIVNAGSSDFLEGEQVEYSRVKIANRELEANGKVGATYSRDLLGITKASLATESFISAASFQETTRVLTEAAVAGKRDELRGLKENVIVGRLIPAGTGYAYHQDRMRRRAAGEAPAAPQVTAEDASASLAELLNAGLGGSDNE
# Sequence of E. coli RNA polymerase σ^70 holoenzyme (P0A800 whole entry, further chain): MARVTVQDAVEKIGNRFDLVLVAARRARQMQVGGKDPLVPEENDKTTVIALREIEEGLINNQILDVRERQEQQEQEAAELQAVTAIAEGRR
# Sequence of E. coli RNA polymerase σ^70 holoenzyme (P0A8V2 whole entry): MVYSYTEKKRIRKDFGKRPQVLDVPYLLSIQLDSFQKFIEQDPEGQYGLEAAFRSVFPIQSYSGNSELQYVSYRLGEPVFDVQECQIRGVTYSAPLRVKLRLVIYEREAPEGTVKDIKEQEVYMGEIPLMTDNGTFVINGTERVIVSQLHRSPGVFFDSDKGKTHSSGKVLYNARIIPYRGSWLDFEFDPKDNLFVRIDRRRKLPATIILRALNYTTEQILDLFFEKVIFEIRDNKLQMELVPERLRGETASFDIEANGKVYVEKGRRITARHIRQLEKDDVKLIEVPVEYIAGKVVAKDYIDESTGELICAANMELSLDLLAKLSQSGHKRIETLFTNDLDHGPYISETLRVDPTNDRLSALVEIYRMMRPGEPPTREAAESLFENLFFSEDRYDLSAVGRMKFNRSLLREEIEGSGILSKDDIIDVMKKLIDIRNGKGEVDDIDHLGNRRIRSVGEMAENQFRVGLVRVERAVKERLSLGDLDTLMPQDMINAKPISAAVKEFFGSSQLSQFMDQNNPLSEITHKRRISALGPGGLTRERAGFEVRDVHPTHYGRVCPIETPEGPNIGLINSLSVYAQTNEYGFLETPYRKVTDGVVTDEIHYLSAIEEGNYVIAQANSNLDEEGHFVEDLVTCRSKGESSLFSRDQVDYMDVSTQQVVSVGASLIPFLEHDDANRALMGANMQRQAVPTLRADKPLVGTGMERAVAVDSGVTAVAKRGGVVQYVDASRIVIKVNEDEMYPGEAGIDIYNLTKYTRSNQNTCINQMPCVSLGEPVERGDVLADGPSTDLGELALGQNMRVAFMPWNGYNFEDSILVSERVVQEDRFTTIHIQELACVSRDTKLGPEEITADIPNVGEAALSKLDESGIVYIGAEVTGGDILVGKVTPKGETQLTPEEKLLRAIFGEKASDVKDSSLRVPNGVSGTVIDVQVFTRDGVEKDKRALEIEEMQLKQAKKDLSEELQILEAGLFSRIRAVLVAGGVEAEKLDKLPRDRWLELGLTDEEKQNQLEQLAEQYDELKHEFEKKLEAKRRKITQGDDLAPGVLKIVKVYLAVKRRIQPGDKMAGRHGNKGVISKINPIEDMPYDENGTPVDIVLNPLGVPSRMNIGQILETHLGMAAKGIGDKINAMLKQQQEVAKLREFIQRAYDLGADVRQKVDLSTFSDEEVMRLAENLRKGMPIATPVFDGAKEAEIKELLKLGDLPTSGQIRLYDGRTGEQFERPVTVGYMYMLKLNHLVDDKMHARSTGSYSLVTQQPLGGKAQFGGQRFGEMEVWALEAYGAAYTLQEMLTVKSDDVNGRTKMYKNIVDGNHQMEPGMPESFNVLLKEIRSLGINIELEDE
# Sequence of E. coli RNA polymerase σ^70 holoenzyme (P00579 whole entry, further chain): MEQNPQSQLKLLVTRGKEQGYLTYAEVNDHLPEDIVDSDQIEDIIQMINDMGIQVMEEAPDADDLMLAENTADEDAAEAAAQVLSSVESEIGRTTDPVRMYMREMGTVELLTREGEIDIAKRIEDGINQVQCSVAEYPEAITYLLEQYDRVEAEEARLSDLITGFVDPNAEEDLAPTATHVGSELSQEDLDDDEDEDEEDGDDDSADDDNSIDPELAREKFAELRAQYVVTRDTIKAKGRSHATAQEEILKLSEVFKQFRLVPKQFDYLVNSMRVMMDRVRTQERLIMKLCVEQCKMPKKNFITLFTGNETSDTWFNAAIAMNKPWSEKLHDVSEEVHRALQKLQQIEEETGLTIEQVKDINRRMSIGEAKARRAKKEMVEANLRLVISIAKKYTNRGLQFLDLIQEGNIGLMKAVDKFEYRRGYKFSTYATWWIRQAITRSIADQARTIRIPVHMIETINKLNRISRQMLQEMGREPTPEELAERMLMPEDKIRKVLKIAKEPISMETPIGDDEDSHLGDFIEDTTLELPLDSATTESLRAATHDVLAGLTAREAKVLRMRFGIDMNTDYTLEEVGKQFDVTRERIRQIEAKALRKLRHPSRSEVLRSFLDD
# Sequence of E. coli RNA polymerase σ^70 holoenzyme (P0A7Z4 whole entry, further chain): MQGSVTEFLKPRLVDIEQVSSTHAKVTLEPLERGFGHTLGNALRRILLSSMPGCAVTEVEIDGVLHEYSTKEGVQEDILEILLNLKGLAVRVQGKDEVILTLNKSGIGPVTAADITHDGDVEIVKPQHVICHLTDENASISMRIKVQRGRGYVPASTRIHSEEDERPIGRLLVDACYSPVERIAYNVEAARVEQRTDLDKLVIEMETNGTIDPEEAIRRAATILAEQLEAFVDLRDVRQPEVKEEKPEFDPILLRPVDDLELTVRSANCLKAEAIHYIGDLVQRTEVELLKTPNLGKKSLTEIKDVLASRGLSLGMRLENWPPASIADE
Structure (SMILES),pIC50 [1],MIC [2] [µg/mL],MIC [3] [µg/mL],MIC [4] [µg/mL],MIC [5] [µg/mL],MIC [6] [µg/mL],MIC [7] [µg/mL],MIC (Yersinia pestis C092) [µg/mL],MIC (Burkholderia mallei CHN7) [µg/mL],MIC [8] [µg/mL],MIC (Brucella melitensis 16M) [µg/mL]
"COC(=O)N/C=C/CCC(C)c1cc(O)c(C(=O)C(C)=Cc2cccc(OCCC(C)(C)C)c2)c(=O)o1 (mixture of isomers) [APY49, methyl (E)-5-(3-((E/Z)-3-(3-(3,3-dimethylbutoxy)phenyl)-2-methylacryloyl)-4-hydroxy-2-oxo-2H-pyran-6-yl)hex-1-enylcarbamate]",8.00,> 40,> 40,0.3,50,10,30,> 50,50,> 50,10
"CCCCOc1ccc(C=C(C)C(=O)c2c(O)cc(C(C)CC/C=C/NC(=O)OC)oc2=O)cc1 (mixture of isomers) [APY39, methyl (E)-5-(3-((E/Z)-3-(4-butoxyphenyl)-2-methylacryloyl)-4-hydroxy-2-oxo-2H-pyran-6-yl)hex-1-enylcarbamate]",7.10,1,> 40,0.2,3,3,30,30,10,50,0.4
"COC(=O)N/C=C/CCC(C)c1cc(O)c(C(=O)C(C)=Cc2ccc(OC(C)C)cc2C)c(=O)o1 (mixture of isomers) [APY130, methyl ((1E)-5-(4-hydroxy-3-(3-(4-isopropoxy-2-methylphenyl)-2-methylacryloyl)-2-oxo-2H-pyran-6-yl)hex-1-en-1-yl)carbamate]",6.70,3,> 40,2,30,10,> 50,> 50,> 50,> 50,> 50
"CCCOc1ccc2c(c1)cc(C=C(C)C(=O)c1c(O)cc(C(C)CC/C=C/NC(=O)OC)oc1=O)n2C (mixture of isomers) [APY121, methyl ((1E)-5-(4-hydroxy-3-(2-methyl-3-(1-methyl-5-propoxy-1H-indol-2-yl)acryloyl)-2-oxo-2H-pyran-6-yl)hex-1-en-1-yl)carbamate]",6.30,> 40,> 40,0.8,> 50,> 50,> 50,> 50,> 50,> 50,> 50
"COC(=O)N/C=C/CCC(C)c1cc(O)c(C(=O)C(C)=Cc2cc(Br)c(CC(C)C)s2)c(=O)o1 (mixture of isomers) [APY120, methyl ((1E)-5-(3-(3-(4-bromo-5-isobutylthiophen-2-yl)-2-methylacryloyl)-4-hydroxy-2-oxo-2H-pyran-6-yl)hex-1-en-1-yl)carbamate]",7.70,1,30,0.2,> 50,2,50,6,6,10,3
"COC(=O)N/C=C/CCC(C)c1cc(O)c(C(=O)C(C)=Cc2cnc(CCC(C)C)s2)c(=O)o1 (mixture of isomers) [APY137, methyl ((1E)-5-(4-hydroxy-3-(3-(2-isopentylthiazol-5-yl)-2-methylacryloyl)-2-oxo-2H-pyran-6-yl)hex-1-en-1-yl)carbamate]",8.00,1,> 40,0.08,6,3,50,10,10,30,6
COC(=O)N/C=C/CCC(C)c1cc(O)c(C(=O)C(C)=Cc2cc3cc(OC(C)C)ccc3n2C)c(=O)o1 (mixture of isomers) [APY123],6.30,> 40,> 40,2,> 50,> 50,> 50,> 50,> 50,> 50,> 50
"COC(=O)N/C=C/CCC(C)c1cc(O)c(C(=O)C(C)=Cc2ccc(OCC(F)F)s2)c(=O)o1 (mixture of isomers) [APY138, methyl ((1E)-5-(3-(3-(5-(2,2-difluoroethoxy)thiophen-2-yl)-2-methylacryloyl)-4-hydroxy-2-oxo-2H-pyran-6-yl)hex-1-en-1-yl)carbamate]",6.52,10,> 40,0.5,10,50,> 50,50,> 50,> 50,50
"COC(=O)N/C=C/CCC(C)c1cc(O)c(C(=O)C(C)=Cc2ccc(CCC(F)(F)F)cc2C)c(=O)o1 (mixture of isomers) [APY127, methyl ((1E)-5-(4-hydroxy-3-(2-methyl-3-(2-methyl-4-(3,3,3-trifluoropropyl)phenyl)acryloyl)-2-oxo-2H-pyran-6-yl)hex-1-en-1-yl)carbamate]",7.15,2,> 40,0.4,50,6,> 50,50,50,50,50
"CCCCCCc1ccc(C=C(C)C(=O)c2c(O)cc(C(C)CC/C=C/NC(=O)OC)oc2=O)cn1 (mixture of isomers) [APY37, methyl (E)-5-(3-((E/Z)-3-(6-hexylpyridin-3-yl)-2-methylacryloyl)-4-hydroxy-2-oxo-2H-pyran-6-yl)hex-1-enylcarbamate]",7.05,> 40,> 40,0.6,> 50,50,50,> 50,50,> 50,10
"CCCOc1cccc(C=C(C)C(=O)c2c(O)cc(C(C)CC/C=C/NC(=O)OC)oc2=O)c1 (mixture of isomers) [APY43, methyl (E)-5-(4-hydroxy-3-((E/Z)-2-methyl-3-(3-propoxyphenyl)acryloyl)-2-oxo-2H-pyran-6-yl)hex-1-enylcarbamate]",6.70,> 40,> 40,0.4,6,10,30,> 50,50,50,3
"COC(=O)N/C=C/CCC(C)c1cc(O)c(C(=O)C(C)=Cc2ccc(CC3CC3)s2)c(=O)o1 (mixture of isomers) [APY125, methyl ((1E)-5-(3-(3-(5-(cyclopropylmethyl)thiophen-2-yl)-2-methylacryloyl)-4-hydroxy-2-oxo-2H-pyran-6-yl)hex-1-en-1-yl)carbamate]",7.40,1,20,0.6,10,6,> 50,6,10,50,6
"COC(=O)N/C=C/CCC(C)c1cc(O)c(C(=O)C(C)=Cc2ccc(OCCC(F)(F)F)s2)c(=O)o1 (mixture of isomers) [APY139, methyl ((1E)-5-(4-hydroxy-3-(2-methyl-3-(5-(3,3,3-trifluoropropoxy)thiophen-2-yl)acryloyl)-2-oxo-2H-pyran-6-yl)hex-1-en-1-yl)carbamate]",7.52,2,> 40,0.2,6,6,> 50,10,50,> 50,10
"COC(=O)N/C=C/CCC(C)c1cc(O)c(C(=O)C(C)=Cc2ccc(OCC(F)F)cc2)c(=O)o1 (mixture of isomers) [APY132, methyl ((1E)-5-(3-(3-(4-(2,2-difluoroethoxy)phenyl)-2-methylacryloyl)-4-hydroxy-2-oxo-2H-pyran-6-yl)hex-1-en-1-yl)carbamate]",6.70,5,> 40,0.7,10,30,> 50,> 50,> 50,> 50,30
"CCCOc1ccc(C=C(C)C(=O)c2c(O)cc(C(C)CC/C=C/NC(=O)OC)oc2=O)c(C)c1 (mixture of isomers) [APY128, methyl ((1E)-5-(4-hydroxy-3-(2-methyl-3-(2-methyl-4-propoxyphenyl)acryloyl)-2-oxo-2H-pyran-6-yl)hex-1-en-1-yl)carbamate]",6.30,4,> 40,0.6,30,10,> 50,> 50,> 50,> 50,> 50
